Key:
Type in all cases: in vivo, mouse
[1] = tested on: acutely-diabetic NOD mice; experiment: Example 1: fasting blood glucose in acutely-diabetic NOD mice treated with GLP-1 or GLP-1 + Gastrin
Protocol: Female NOD mice ages 12-16 weeks were treated for 18 days only with vehicle (PBS), GLP-1 (300 μg/kg/day), or GLP-1 (300 μg/kg/day)+Gastrin (3 μg/kg/day), by injection intraperitoneally twice daily within 2 days after diabetes onset. Onset of diabetes was determined by fasting blood glucose (FBG) levels (9-15 mM compared with normal FBG <6.0 mM). The mice were monitored daily for urine glucose and weekly for FBG levels.
At the start of the treatments, fasting blood glucose levels ranged between 11-14 mM. After 18 days of treatments, FBG was 24±1 mM in vehicle-treated mice, 13±2 mM in mice treated with GLP-1 alone, and 6±1 mM in mice treated with the combination of GLP-1 and Gastrin (mean±SE, n=4 mice in treated groups; n=6 mice in the control group).
After 18 days of treatment therapy was stopped and FBG was monitored weekly for additional six weeks. […] Comparatively, the untreated group of animals had to be sacrificed due to the severity of the disease after five weeks.

[2] = tested on: acutely-diabetic NOD mice; experiment: Example 2: fasting blood glucose in acutely-diabetic NOD mice, during treatment and 6 weeks after
Protocol: (§1) The mice were monitored daily for urine glucose levels and weekly for FBG levels during the treatment and for an additional 6 weeks after the treatment was stopped. The pancreatic insulin levels were determined in each group as well as histological analysis of the pancreatic tissue was performed. Pancreatic tissues were fixed and stained for insulin producing cells. The beta cell mass was determined by morphometric analysis.

[3] = tested on: acutely-diabetic NOD mice; experiment: Example 2: pancreatic insulin levels in NOD mice
Protocol: as §1

Substance: GLP-1(7-36) Amide, Human
- FBG course during six weeks after treatment was stopped ([1]; FBG monitored weekly for six weeks post treatment): transient improvement in FBG levels up to 2 weeks after the treatment was stopped
- fasting blood glucose (FBG) after 18 days of treatments ([1]; female NOD mice, i.p. twice daily for 18 days, GLP-1 300 μg/kg/day, Gastrin 3 μg/kg/day, mean±SE, n=4, normal FBG <6.0 mM): 13 ± 2 mM
- fasting blood glucose after 18 days of daily treatments ([2]; NOD mice, i.p. twice daily, combination printed as 30 μg/kg/day of GLP-1 and 3 μg/kg/day of G1): 12.5 ± 2.2 mM
- maximal blood glucose levels reached post treatment ([2]; after treatments stopped, animals suffering from diabetic complications): over 30 mM
- effect on pancreatic insulin levels (in words) [3]: modest effect only
